Test results: the NIST ThermoML archive (doi:10.1016/j.jct.2009.11.012)

Columns and labels:
[1] = Molar enthalpy of transition or fusion; conditions: Crystal 2; DSC
[2] = molar heat capacity at constant pressure; conditions: 101.33 kPa, Small sample (50 mg) DSC
[3] = molar enthalpy of transition or fusion; conditions: 298.15 K; Crystal 2; DSC
[4] = DTA

O=C(Nc1ccc(Cl)cc1)Nc1ccc(Cl)c(Cl)c1 [N-(4-chlorophenyl)-N'-(3,4-dichlorophenyl)urea]
Conditions	Molar enthalpy of transition or fusion [kcal/mol]	molar enthalpy of transition or fusion [kcal/mol]
[1]	1.46	–
[3]	–	43.5

[2]
Conditions	molar heat capacity at constant pressure [J/K/mol]
263.15 K, Crystal 2	268.71
265.15 K, Crystal 2	269.88
270.15 K, Crystal 2	272.35
275.15 K, Crystal 2	274.29
280.15 K, Crystal 2	276.34
285.15 K, Crystal 2	278.5
290.15 K, Crystal 2	280.82
295.15 K, Crystal 2	282.87
298.15 K, Crystal 2	284.13
300.15 K, Crystal 2	285.18
305.15 K, Crystal 2	287.71
310.15 K, Crystal 2	290.49
315.15 K, Crystal 2	290.67
320.15 K, Crystal 2	294.23
325.15 K, Crystal 2	294.87
330.15 K, Crystal 2	297.95
335.15 K, Crystal 2	299.93
340.15 K, Crystal 2	302.05
345.15 K, Crystal 2	304.25
350.15 K, Crystal 2	307.35
355.15 K, Crystal 2	310.57
360.15 K, Crystal 2	313.61
365.15 K, Crystal 2	316.56
370.15 K, Crystal 2	318.53
375.15 K, Crystal 2	320.86
380.15 K, Crystal 2	322.77
385.15 K, Crystal 2	325.84
390.15 K, Crystal 2	328.48
395.15 K, Crystal 2	330.98
400.15 K, Crystal 2	333.62
405.15 K, Crystal 2	335.55
410.15 K, Crystal 2	339.3
475.15 K, Crystal 1	432.35
480.15 K, Crystal 1	436.61
485.15 K, Crystal 1	444.02
490.15 K, Crystal 1	452.78
495.15 K, Crystal 1	464.93

[4]
Conditions	Normal melting temperature [°C]	Triple point temperature [K]
Crystal 1	254.4	–
Crystal 2	–	428
